Laboratory results as given in US7071231B2, “Naphthalene ureas as glucose uptake enhancers” (Telik, Inc., priority 1999, dated 2006).
Where a name gives a salt, the structure may show the parent alone.

Key:
human insulin receptor = biological target: T1, human insulin receptor (Homo sapiens, UniProt P06213); assay: Whole-cell phosphorylation assay (3T3HIR cells); format: cell-based; settings: 15 min, anti-phosphotyrosine Western, various concentrations (FIG. 2)
T1 construct: expressed in transfected cells; host or cells: NIH 3T3 (3T3HIR)
Procedure: Whole-cell Phosphorylation Assay:
The initial step in insulin signaling is phosphorylation of the insulin receptor in response to insulin binding. NIH 3T3 cells overexpressing human insulin receptor (3T3HIR) were grown for 2 days at a density of 2×10^5/ml cells in 6 well culture dishes in DMEM with 10% FBS and L-glutamine. Prior to the experiment the cells were serum-starved overnight with DMEM with 0.1% BSA. The following morning, the cells were washed with PBS and the medium was replaced with 150 mM NaCl, 1.7 mM KCl, 0.9 mM CaCl2, K2HPO4 (pH 7.4), to which were added either the experimental compounds, or their vehicle (DMSO). Insulin or its vehicle (0.01% BSA) was diluted in the assay buffer (containing test compound or vehicle, respectively) to a final concentration of 2.5 nM. After incubating for 15 min, the cells were washed with cold PBS twice and lysed in 50 mM Tris.HCl, pH 7.4 150 mM NaCl, 0.25% sodium deoxycholate, 1% NP-40, 1 mM EGTA, 1 mM PMSF, 1 mM Na3VO4, 1 mM NaF, 1 ug/ml each of Aprotinin, Leupeptin and Pepstatin. The cell lysates were clarified by centrifugation at 12000 rpm, and the supernatants were estimated for protein concentration. Total cell lysate ([…]) was boiled with 2× SDS-PAGE sample buffer for 3 min and loaded into 7.5% SDS-PAGE along with Amersham rainbow marker protein as a molecular weight standard. […]

[1] = biological target: T2, β-kinase domain of the human insulin receptor (CKD) (Homo sapiens, UniProt P06213); assay: 32P-cytoplasmic kinase domain (CKD) autophosphorylation assay; format: biochemical; settings: phosphorylation of CKD expressed as % of the vehicle level; 10 minutes at room temperature; compound concentration not given
T2 construct: The complete β-kinase domain of the human insulin receptor (CKD) was expressed in, and purified from, baculovirus; made in house
Procedure: ^32P-cytoplasmic Kinase Domain (CKD) Autophosphorylation Assay The insulin signaling pathway is activated through stimulation of the insulin receptor. A major component of this activation is the phosphorylation of a specific portion of the receptor called the β-kinase domain. The complete β-kinase domain of the human insulin receptor (CKD) was expressed in, and purified from, baculovirus. CKD (4.0μg/ml), in a solution of 29 mM HEPES (pH 7.6), 0.05% Triton X-100, 10 mM MgCl2, 2 mM MnCl2 (50 μl final volume), was combined with 50 μM ATP, and 5 μCi ^32P-ATP (3000Ci/mmol.). A test compound, or the vehicle (dimethyl sulfoxide (DMSO)) was added to a final DMSO concentration of 1%. The mixture was incubated for 10 minutes at room temperature. The reaction was terminated by the addition of 10 μl 200 mM EDTA. A 30 μl volume was removed, mixed with 5 μl of 6× Laemmeli sodium dodecyl sulfate (SDS) treatment buffer, and heated to 94° C. for 5 minutes. A 20 μl aliquot was then run an SDS-PAGE gel. The radioactivity incorporated into the CKD band was quantified by phosphorimaging of the gel, or scintillation counting of the excised bands. The potency of a compound for increasing phosphorylation was expressed as % of the vehicle level.

3T3 L1 fibroblasts = assay: Glucose transport activity assay (14C-2-deoxy-D-glucose uptake); format: cell-based
Outline: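 Differentiated 3T3 L1 adipocytes (IBMX/dexamethasone/insulin induction), serum-starved overnight, preincubated 30 min at 37 °C with compound ± insulin in pH 7.4 salt buffer, then 30 min with 5 μCi/ml 14C-2-deoxy-D-glucose. Lysate radioactivity counted; EC = concentration raising uptake above 150% of vehicle control.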

STZ/HFD rat = assay: Blood glucose determination in the STZ/HFD rat model of Type 2 diabetes; format: in vivo; settings: STZ/HFD rat model, oral compound administration (30 mg/kg)
Excerpt: Blood Glucose Determination in the STZ/HFD Rat Model of Type 2 Diabetes
Representative compounds were also profiled in genetically normal rats given a high-fat diet followed by treatment with a low dose of streptozotocin (STZ/HFD). This treatment regimen recreates both the insulin resistance and the hyperglycemia seen in human Type 2 diabetes. Male CD rats (Jackson Labs, Bar Harbor Me.) were maintained according to NIH guidelines, housed two per cage, and fed either standard lab chow (Tekland Laboratory Diets, James Grain, San Jose, Calif.) or the same chow supplemented with chocolate bars, cookies, and potato chips such that their final diet contained 30% fat by weight (high-fat diet; HFD). After two weeks of this diet, the animals were given an injection of freshly-prepared streptozotocin (35 mg/kg, i.p.) and continued on the HFD. Animals that achieved glucose levels of 190 to 380 mg/dl were used in this study. At the end of the 12-hour light/dark cycle, and just prior to the experiment, the animals were moved to new cages with no food available until 4 hours after treatment. The compound or vehicle (PBS) was given p.o. by gavage, and blood was sampled by approved IACUC protocol using tail cap method. Glucose was determined using the Glucometer Elite (Bayer, Elkhart, Ind.).
The reduction was maximal (20%) 4 hours after the administration of Compound 15.

[2] = test system: Escherichia coli strain WP2uvrA; assay: Ames test, Escherichia coli strain; settings: 50 to 5000 μg/plate, without and with induced rat liver S-9 plus cofactors
[3] = test system: Salmonella typhimurium strains, TA100, TA1535, and TA1537; assay: Ames test, Salmonella typhimurium strains; settings: 50 to 5000 μg/plate, without and with induced rat liver S-9 plus cofactors
3T3 L1 adipocytes = assay: Effect of Wortmannin and Cytochalasin on glucose uptake; format: cell-based; settings: Cytochalasin B 10 μM; stimulation by Compound 15 alone or Compound 15 plus 5.6 nM insulin
Procedure: Effect of Wortmannin and Cytochalasin on Glucose Uptake:
The glucose transport pathway stimulated by insulin involves activation of PI3 Kinase. Wortmannin is a selective inhibitor of PI3 Kinase and inhibits insulin-stimulated glucose transport. 3T3 L1 adipocytes were pretreated with 100 nM Wortmannin and stimulated with the compounds in the presence or absence of insulin. […] Insulin-stimulated glucose transport is mediated by glucose transporter proteins. Cytochalasin B is an inhibitor of glucose transporters and inhibits insulin-stimulated glucose uptake.

T2 sequence (P06213 980-1382 limits assumed): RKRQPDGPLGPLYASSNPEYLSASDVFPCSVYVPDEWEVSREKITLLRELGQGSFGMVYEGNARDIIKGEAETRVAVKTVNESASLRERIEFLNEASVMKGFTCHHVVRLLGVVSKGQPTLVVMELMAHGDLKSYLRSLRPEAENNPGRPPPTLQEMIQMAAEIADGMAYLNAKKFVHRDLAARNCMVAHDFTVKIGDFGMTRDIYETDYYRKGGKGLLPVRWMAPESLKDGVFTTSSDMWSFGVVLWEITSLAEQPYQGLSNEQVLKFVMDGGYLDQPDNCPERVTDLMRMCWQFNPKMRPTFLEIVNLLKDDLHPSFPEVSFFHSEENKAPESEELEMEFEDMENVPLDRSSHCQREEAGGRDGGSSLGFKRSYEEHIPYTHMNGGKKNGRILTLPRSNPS
T1 sequence (P06213 763-1382 limits assumed): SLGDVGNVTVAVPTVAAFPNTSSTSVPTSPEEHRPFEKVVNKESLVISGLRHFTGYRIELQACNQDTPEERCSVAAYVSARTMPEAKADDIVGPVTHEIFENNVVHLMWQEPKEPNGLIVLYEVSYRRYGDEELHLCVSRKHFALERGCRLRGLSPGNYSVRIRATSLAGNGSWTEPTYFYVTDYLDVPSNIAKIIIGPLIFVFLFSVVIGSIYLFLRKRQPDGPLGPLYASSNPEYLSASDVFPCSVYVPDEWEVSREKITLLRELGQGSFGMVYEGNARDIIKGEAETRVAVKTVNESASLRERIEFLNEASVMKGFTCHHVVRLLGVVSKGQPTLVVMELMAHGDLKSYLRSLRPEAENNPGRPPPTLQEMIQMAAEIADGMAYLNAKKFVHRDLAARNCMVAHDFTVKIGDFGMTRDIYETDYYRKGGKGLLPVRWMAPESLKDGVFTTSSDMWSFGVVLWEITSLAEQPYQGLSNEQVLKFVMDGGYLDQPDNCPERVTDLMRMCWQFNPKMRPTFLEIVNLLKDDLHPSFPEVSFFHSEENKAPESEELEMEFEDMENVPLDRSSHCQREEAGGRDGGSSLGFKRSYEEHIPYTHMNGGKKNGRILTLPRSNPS
T1 sequence (P06213 28-758 partner limits assumed): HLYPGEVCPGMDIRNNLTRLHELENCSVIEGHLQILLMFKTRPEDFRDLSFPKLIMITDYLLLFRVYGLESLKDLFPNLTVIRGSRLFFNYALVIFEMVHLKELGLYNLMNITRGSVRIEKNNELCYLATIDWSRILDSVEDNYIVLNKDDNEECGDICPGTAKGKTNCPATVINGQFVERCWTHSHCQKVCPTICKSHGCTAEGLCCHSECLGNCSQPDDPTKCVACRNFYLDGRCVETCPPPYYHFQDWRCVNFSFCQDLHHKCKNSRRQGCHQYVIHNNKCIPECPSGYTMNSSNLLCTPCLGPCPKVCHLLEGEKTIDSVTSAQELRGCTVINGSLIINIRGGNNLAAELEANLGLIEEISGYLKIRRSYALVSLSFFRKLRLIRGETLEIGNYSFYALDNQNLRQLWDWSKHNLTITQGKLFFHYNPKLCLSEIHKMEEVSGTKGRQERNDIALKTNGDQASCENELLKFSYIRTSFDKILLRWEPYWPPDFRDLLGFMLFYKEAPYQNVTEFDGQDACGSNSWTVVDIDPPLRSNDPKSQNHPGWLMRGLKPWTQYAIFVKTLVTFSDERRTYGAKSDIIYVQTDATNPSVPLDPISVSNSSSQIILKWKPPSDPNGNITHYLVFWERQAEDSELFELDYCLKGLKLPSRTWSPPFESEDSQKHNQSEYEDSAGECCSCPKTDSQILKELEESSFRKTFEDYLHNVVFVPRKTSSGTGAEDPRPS

Row | Structure (SMILES) | autophosphorylation of the insulin receptor in whole cells (human insulin receptor) | % Activity vs. Control [1] [%] | glucose uptake of cells (3T3 L1 fibroblasts; in the presence or absence of insulin (FIG. 3)) | % Reduction in Blood Glucose (maximal reduction) (STZ/HFD rat) [%] | Time (h) at which maximal reduction in blood glucose occurred (STZ/HFD rat) [h] | mutagenicity (revertant colonies), tryptophan operon [2] | EC (150% of vehicle control) (3T3 L1 fibroblasts; Mus musculus, 3T3-L1, read-out: Concentration (μM) to reach >150% activity of vehicle control) [µM] | mutagenicity (revertant colonies), histidine operon [3] | effect on stimulation of glucose transport (3T3 L1 adipocytes)
1 | O=C(Nc1ccc2ccc(S(=O)(=O)Nc3cccc(S(=O)(=O)O)c3)cc2c1)Nc1ccc2ccc(S(=O)(=O)Nc3cccc(S(=O)(=O)O)c3)cc2c1 [Compound 13, 3-{[(7-{[N-(7-{[(3-sulfophenyl)amino]sulfonyl}-2-naphthyl)carbamoyl]amino}-2-naphthyl)sulfonyl]amino}benzenesulfonic acid disodium salt] | increase of autophosphorylation | 135 | increase in glucose uptake of cells | 20 | 1 |  |  |  | 
2 | O=C(Nc1ccc2c(O)cc(S(=O)(=O)O)cc2c1)Nc1ccc2c(O)cc(S(=O)(=O)O)cc2c1 [Compound 4, 4-hydroxy-7-{[(5-hydroxy-7-sulfo(2-naphthyl))amino]carbonylamino}naphthalene-2-sulfonic acid disodium salt] |  | 152 |  |  |  | negative | 32 | negative | 
3 | C=C1[C@@H](C)[C@H]2[C@H](Cc3ccccc3)NC(=O)[C@]23OC(=O)/C=C/[C@H](O)CCC[C@@H](C)C/C=C/[C@H]3[C@@H]1O [Cytochalasin B] |  |  |  |  |  |  |  |  | inhibited the stimulation of glucose transport
